From PMC5940383, “SMAR1 inhibits Wnt/β-catenin signaling and prevents colorectal cancer progression” (Oncotarget, 2018)
Where a SMILES comes first, the peptide text is derived from it. Where no end group is shown, it is not given here. The star is where a group is joined. Cbz = O=C(OCc1ccccc1)*

What was measured:
[1] = tested on: HCT116 cells; details: 48 h
[2] = NOD-SCID mice, 25 mg/kg body weight intra-peritoneally on alternate days for 21 days, throughout the course of treatment
[3] = tested on: SMAR1 expression in HCT116 cells and an array of CRC cell lines; assay: Western blot / confocal: SMAR1 protein expression after peptide treatment; format: cell-based; details: Wnt3a CM or rh Wnt3a ligand (200 ng/mL), LiCl 30 mM for 6 hrs, MG132 10 μM with or without Wnt3a CM
Procedure: (§1) HCT116, SW480, SW620, HCT15 and HT29 cells (obtained from NCCS, Pune) were cultured in DMEM medium with 10% Fetal Bovine Serum (Gibco) and 100 Units of Penicillin Streptomycin antibiotics (Gibco). HCT116 stable cells were generated using GFP-SMAR1, GFP-control and GFP-sh-SMAR1 plasmids. si-HDAC5 plasmid was purchased from Santa Cruz Biotechnology. Conditioned medium were prepared using L cells and L-Wnt3a cells (kind gift from Jomon Joseph, NCCS Pune). After culturing for 7 days supernatant was collected and filtered through 0.22 micron syringe filter. Cells were treated with peptides (provided by Amrita Therapeutics) for 48 hours. Lipofectamine 2000 (Invitrogen) was used for transfection purposes.
(§2) Proteins were extracted using lysis buffer (50 mM Tris-Cl pH 7.5, 5 mM EDTA, 0.5% NP40, 50 mM NaF, 1 mM DTT, 0.2 mM sodium orthovanadate, 0.5 mM PMSF, 150 mM NaCl and 1X Protease Inhibitor cocktail). 40 μg proteins were transferred to PVDF membranes by Western blotting technique and blots were blocked with 5% BSA and incubated in primary antibodies. Blots were then incubated with HRP conjugated secondary antibodies and developed in X-ray films. For IP, proteins extracted were pre-cleared with Protein A/G beads (Invitrogen) and immunoprecipitated overnight with desired antibodies. Protein A/G beads were used to pull-down the protein-antibody complex and western blot was performed to check the interaction.
For confocal studies cells were fixed with 4% para-formaldehyde solution and permeabilized using 0.1% TritonX-100 solution. Cells were incubated with 1:250 dilution SMAR1 (Bethyl) antibody for 2 hours and later with 1:250 dilution Cy3 (Life Technologies) antibody for 1 hour. Coverslips containing cells were mounted using DAPI containing mounting medium (Fluoroshield with DAPI, Sigma). Human colon paraffinized tissue sections were de-paraffinized by heating in a microwave oven and later washed with xylene and alcohol. Antigen retrieval was performed and washed with PBS for further staining with 1:250 SMAR1 (Bethyl) and 1:250 β-catenin (BD Bioscience) antibodies. […]

[4] = tested on: β-catenin expression in HCT116 cells; assay: Western blot: β-catenin expression; format: cell-based; details: Wnt3a CM or rh Wnt3a ligand (200 ng/mL)
Procedure: as §1
as §2, with “Protein A/G beads were used to pull-down the protein-antibody complex and western blot was performed to check the interaction.” left out

[5] = tested on: β-catenin promoter in HCT116 cells; assay: ChIP: occupancy of SMAR1, HDAC5 and H3K9 Ac at β-catenin promoter; format: cell-based; details: Wnt3a CM stimulation, mean ± SD, n = 3
Procedure: HCT116 cells were transfected with GFP-control, GFP-SMAR1, GFP-sh-SMAR1 or HDAC5 siRNA plasmids. ChIP was performed using Millipore reagents supplied according to the manufacturer's protocol. The protein-DNA complex were immunoprecipitated overnight at 4° C using SMAR1 (Bethyl), HDAC5 (Cell Signaling), H3K9Ac (Cell Signaling) or IgG (Santa Cruz Biotechnology) antibodies (1 μg each). PCR was performed with the primers flanking the binding sites of SMAR1 in β-catenin promoter. […]. The PCR conditions were 95° C for 1 minute, 55° C for 1 minute and 72° C for 1 minute for 35 cycles. The PCR amplicons obtained were run in 1% Agarose (Sigma) gel and documented.

[6] = tested on: β-catenin promoter (pEGFP1-β-catenin) in HCT116 cells; assay: Flow cytometry of pEGFP1-β-catenin GFP expression; format: cell-based; details: pEGFP1-β-catenin transfected HCT116 cells, 200 ng/mL rh Wnt3a ligand; n = 3, SD
Source text: Genomic DNA was isolated from HCT116 cells and amplified with primers flanking binding sites of SMAR1 in β-catenin promoter. […]. The amplicon was ligated into pEGFP1 vector using T4 DNA ligase (NEB) after restriction digestion with XhoI and KpnI enzymes (NEB). Plasmids were transformed into DH5α E. coli competent cells and positive clones were identified after restriction digestion with XhoI and KpnI. The cloned β-catenin promoter was christened as pEGFP1-β-catenin.
HCT116 cells were co-transfected with FLAG-SMAR1 and pEGFP1-β-catenin plasmids or treated with rh Wnt3a ligand after transfection with pEGFP1-β-catenin. For flow cytometry analysis HCT116 cells were trypsinized using Trypsin-EDTA (Gibco) and washed thrice with PBS buffer. Cells were then passed through cell strainer (BD Falcon) and collected in flow cytometry tubes. GFP expressions were quantitated by subjecting 1 × 10^4 cells to BD FACSCalibur flow cytometry. FL1 channel was used to sort and quantify the GFP cells. Using CellQuest Pro software the histogram plots were derived and the GFP percentages were calculated. The graphs corresponding to the GFP percentage were generated using SigmaPlot software.

Molecule | IC50 value (MTT assay) [1] [µg/mL] | adverse effects [2] | SMAR1 protein level after treatment [3] | other results
NAIRGSVTPAVSQFN [AT-01D] | 9.90 | no observable adverse effects |  | 
Wnt3a |  |  | significant downregulation of SMAR1 | β-catenin levels after Wnt3a stimulation [4]: concomitant rise in the β-catenin levels; increased H3K9 Ac occupancy in β-catenin promoter [5]: 4.72 fold; reduced occupancy of HDAC5 in β-catenin promoter [5]: 4.77 fold; reduced occupancy of SMAR1 in β-catenin promoter [5]: 4.54 fold
ATATVNAIRGSVTPAVSQFN [AT-01C] | 10 | no observable adverse effects |  | 
CC(C)C[C@@H](C=O)NC(=O)[C@H](CC(C)C)NC(=O)[C@H](CC(C)C)NC(=O)OCc1ccccc1 [MG132] (Cbz-Leu-Leu-Leu-aldehyde) |  |  | SMAR1 protein stability was observed | 
[Cl-].[Li+] [LiCl] |  |  | failed to downregulate SMAR1 | 
rh Wnt3a: recombinant human (rh) Wnt3a ligand (protein, UniProt P56704 19-352, looked up) Protein Wnt-3a: SYPIWWSLAVGPQYSSLGSQPILCASIPGLVPKQLRFCRNYVEIMPSVAEGIKIGIQECQHQFRGRRWNCTTVHDSLAIFGPVLDKATRESAFVHAIASAGVAFAVTRSCAEGTAAICGCSSRHQGSPGKGWKWGGCSEDIEFGGMVSREFADARENRPDARSAMNRHNNEAGRQAIASHMHLKCKCHGLSGSCEVKTCWWSQPDFRAIGDFLKDKYDSASEMVVEKHRESRGWVETLRPRYTYFKVPTERDLVYYEASPNFCEPNPETGSFGTRDRTCNVSSHGIDGCDLLCCGRGHNARAERRREKCRCVFHWCCYVSCQECTRVYDVHTCK |  |  |  | increase in GFP expression (β-catenin promoter activity) [6]: about 45%
